Entries after “also recorded” stand apart in the source; their conditions may differ. Where two headings read alike, the source gives them in different places.
Assays:
[1] = test system: LNCaP human prostate cancer cell line; test: MTT cytotoxicity test, LNCaP; format: cell-based; details: for CC50: Homo sapiens, LNCaP, read-out: CC50, LNCaP
[2] = MTT cytotoxicity test, VA13; format: cell-based; details: human, VA13 SV40-transformed normal lung fibroblast cells, 72 h incubation
Experimental: (§1) MTT test. […] Assays were performed in triplicates.

[3] = test system: MCF7 breast cancer cell line; test: MTT cytotoxicity test, MCF7; format: cell-based; details: Homo sapiens, 72 h incubation
Experimental: as §1

[4] = test system: A549 human lung adenocarcinoma epithelial cell line; test: MTT cytotoxicity test, A549; format: cell-based; details: 72 h incubation
[5] = test system: HCT116^+/+ human colon cancer cells (p53 positive); test: MTT cytotoxicity test, HCT116 p53+/+; details: for CC50: Homo sapiens, HCT-116, read-out: CC50, HCT^+/+
Description: (§2) The used models included human prostate cancer cell lines LNCaP and PC3, breast cancer cell line (MCF-7), human colon cancer cells (HCT116^+/+, p53 positive, p53^+/+ and HCT116^−/−, p53 negative, p53^−/−), human lung adenocarcinoma epithelial cell line (A549), SV40-transformed normal human lung fibroblast cells (VA13), as well as human embryonic kidney 293 cells (Hek293) stably expressing SV40 large T antigen (Hek293T). The cytotoxicity of the evaluated molecules was properly assessed using a MTT assay based on the modified approach reported by Ferrari and colleagues.
(§3) To further elucidate the dominant mode of action, we used HCT116^+/+ and HCT116^−/− cells by analogy with the paper published by Shangary and colleagues. This isogenic cell line is commonly applied to investigate the p53/MDM2-dependent mode of action.
(§4) MTT test. The MTT assay was carried out according to [35] with few modifications; 3000 Cells (for HEK293T, A549 and MCF7cell lines) or 4000 cells (for VA13 cell line) were seeded in each well of a 96-well plate. […] Assays were performed in triplicates. […] The MTT solution was then discarded and 140 µL of DMSO was added. The plates were swayed on a shaker (60 rpm) to solubilize the formazan. […] The analysis of cytotoxicity and the estimation of IC50 values were carried out with the built-in functions in the GraphPad Prism program (GraphPad Software, Inc., San Diego, CA) P53 activation.

[6] = test system: HCT116^−/− human colon cancer cells (p53 negative); test: MTT cytotoxicity test, HCT116 p53-/-; details: HCT-116, read-out: CC50, HCT^−/−
Description: as §2, §3, §4

[7] = test system: PC3 human prostate cancer cell line; test: MTT cytotoxicity test, PC3; format: cell-based; details: Homo sapiens
[8] = MTT cytotoxicity test, Hek293T; format: cell-based; details: human, 72 h incubation
[9] = ratio of CC50 values of the cell line pair

| Structure (SMILES) | CC50 ([1]; MTT test) | selectivity on LNCaP cells over PC3 cells ([1]; MTT test) | selectivity index S for LNCaP/PC3 cells [1, 9] | CC50 at 72 h [2] | CC50 [3] | CC50 [4] | CC50 [5] | CC50 [6] | CC50 [7] | CC50 at 72 h [8] | melting point | CC50 [1] | CC50, LNCaP ([1]; MTT test) | selectivity S against HCT116^+/+ over HCT116^−/− [5, 9] |
| --- | --- | --- | --- | --- | --- | --- | --- | --- | --- | --- | --- | --- | --- | --- |
| COc1ccc(N2C(=O)[C@@]3(CN(C)C[C@@]34C(=O)Nc3ccc(Cl)cc34)NC2=S)cc1 (racemic) [Compound 4f, 5″-Cchloro-1′-methyl-1-(4-methoxyphenyl)-2-thioxodispiro[imidazolidine-4,3′-pyrrolidine-4′,3″-indoline]-2″,5-dione] | 4.5 ± 0.32 µM | selective; also recorded: moderate selectivity | 2.8 | 2.3 ± 0.4 µM | 2.3 ± 0.5 µM | 2.8 ± 0.4 µM | 1.95 ± 0.43 µM | 2.35 ± 0.95 µM | 12.6 ± 2.3 µM | 1.1 ± 0.1 µM | – | – | – | – |
| CN1CC2(NC(=S)N(c3ccc(F)cc3)C2=O)C2(C1)C(=O)Nc1ccc(Cl)cc12 (stereo not shown) [Compound 4n, 5″-Chloro-1′-methyl-1-(4-fluorophenyl)-2-thioxodispiro[imidazolidine-4,3′-pyrrolidine-4′,3″-indoline]-2″,5-dione] | > 100 µM | – | – | – | – | > 100 µM | > 100 µM | > 100 µM | > 100 µM | 53 ± 9.5 µM | 273 to 274 °C | – | – | – |
| CN1CC2(NC(=S)N(CCCN3CCOCC3)C2=O)C2(C1)C(=O)Nc1ccc(Cl)cc12 (stereo not shown) [Compound 4v, 5″-Chloro-1′-methyl-1-(3-morpholinopropyl)-2-thioxodispiro[imidazolidine-4,3′-pyrrolidine-4′,3″-indoline]-2″,5-dione] | > 100 µM | – | – | – | – | > 100 µM | > 100 µM | > 100 µM | > 100 µM | 103 ± 27.7 µM | 224 to 225 °C | – | – | – |
| CN1CC2(NC(=S)N(c3ccccc3)C2=O)C2(C1)C(=O)Nc1ccc(Cl)cc12 (stereo not shown) [Compound 4x, 5″-Chloro-1′-methyl-1-phenyl-2-thioxodispiro[imidazolidine-4,3′-pyrrolidine-4′,3″-indoline]-2″,5-dione] | > 100 µM | – | – | – | – | > 100 µM | > 100 µM | > 100 µM | > 100 µM | > 100 µM | 268 to 269 °C | – | – | – |
| COc1ccc(N2C(=O)C3(CN(C)CC34C(=O)Nc3ccc(Cl)cc34)NC2=[Se])cc1 (stereo not shown) [Compound 6f, 5″-Chloro-1-(4-methoxyphenyl)-1′-methyl-2-selenoxodispiro[imidazolidine-4,3′-pyrrolidine-4′,3″-indoline]-2″,5-dione] | – | – | – | 12.5 ± 1.5 µM | 20.4 ± 3.6 µM | 15.8 ± 1.5 µM | – | – | – | 14 ± 1.5 µM | 284 to 285 °C (dec.) | – | – | – |
| CN1CC2(NC(=[Se])N(c3ccc(F)c(Cl)c3)C2=O)C2(C1)C(=O)Nc1ccc(Cl)cc12 (stereo not shown) [Compound 6r, 5″-Chloro-1-(3-chloro-4-fluorophenyl)-1′-methyl-2-selenoxodispiro[imidazolidine-4,3′-pyrrolidine-4′,3″-indoline]-2″,5-dione] | – | – | – | – | – | 26.5 ± 5.4 µM | – | – | > 50 µM | 11.9 ± 0.9 µM | 193 to 194 °C (dec.) | 11.8 ± 1.5 µM | good activity | – |
| CCOc1ccc(N2C(=O)NC3(CN(C)CC34C(=O)Nc3ccc(Cl)cc34)C2=O)cc1 (stereo not shown) [Compound 9h, 5″-Chloro-1-(4-ethoxyphenyl)-1′-methyldispiro[imidazolidine-4,3′-pyrrolidine-4′,3″-indoline]-2,2″,5-trione] | – | – | – | – | – | – | – | – | – | – | 273 to 274 °C | – | – | – |
| COc1cc([C@@H]2c3cc4c(cc3[C@@H](O[C@@H]3O[C@@H]5CO[C@@H](C)O[C@H]5[C@H](O)[C@H]3O)[C@H]3COC(=O)[C@H]23)OCO4)cc(OC)c1O [Etoposide, reference compound] | – | – | – | – | 2.6 ± 0.9 µM | 0.3 ± 0.1 µM | 0.43 ± 0.12 µM | 0.85 ± 0.22 µM | – | 0.3 ± 0.1 µM | – | – | – | 1.97 |

Reference: paper PMC8703884, “Synthesis and Biological Evaluation of S-, O- and Se-Containing Dispirooxindoles” (Molecules, 2021)
